# Laboratory results: paper PMC7441537 (Journal of medicinal chemistry, 2019)
# Marks after values point to notes of the source that are not given here.
# Experiments:
# [1] = tested on: WT HIV-1 (NL4-3); assay: Anti-HIV-1 activity against wild-type NL4-3 in TZM-bl cell lines
# [2] = in vitro; conditions: human
# [3] = tested on: WT HIV-1 (IIIB); conditions: MT-4 cells
# [4] = tested on: NNRTI-resistant strain K103N+Y181C (RES056); conditions: MT-4 cells
# [5] = tested on: HIV-1 L100I; assay type: cell-based; conditions: MT-4 cells; CC50/EC50
# [6] = tested on: HIV-1 K103N; assay type: cell-based; conditions: MT-4 cells; CC50/EC50
# [7] = tested on: HIV-1 Y181C; assay type: cell-based; conditions: MT-4 cells; CC50/EC50
# [8] = tested on: HIV-1 Y188L; assay type: cell-based; conditions: MT-4 cells; CC50/EC50
# [9] = tested on: HIV-1 E138K; assay type: cell-based; conditions: MT-4 cells; CC50/EC50
# [10] = tested on: HIV-1 F227L+V106A; assay type: cell-based; conditions: MT-4 cells; CC50/EC50
Compound,SI (CC50/EC50) NL4-3 [1],SI IIIB (CC50/EC50) [3],SI RES056 (CC50/EC50) [4],other results
"Cc1cc(C#N)cc(C)c1Oc1nc(NC2CCCN(Cc3ccc(S(N)(=O)=O)cc3)CC2)nc2ccsc12 (stereo not drawn) [8a1, 4-((4-((4-(4-Cyano-2,6-dimethylphenoxy)thieno[3,2-d]-pyrimidin-2-yl)amino)azepan-1-yl)methyl)benzenesulfonamide]",>100,,,
"Cc1cc(C#N)cc(C)c1Oc1nc(NC2CCCN(Cc3ccc(C(N)=O)cc3)CC2)nc2ccsc12 (stereo not drawn) [8a2, 4-((4-((4-(4-Cyano-2,6-dimethylphenoxy)thieno[3,2-d]-pyrimidin-2-yl)amino)azepan-1-yl)methyl)benzamide]",X1^d,,,
"Cc1cc(C#N)cc(C)c1Oc1nc(NC2CC3CCC(C2)N3Cc2ccc(S(N)(=O)=O)cc2)nc2ccsc12 (stereo not drawn) [8b1, 4-((3-((4-(4-Cyano-2,6-dimethylphenoxy)thieno[3,2-d]-pyrimidin-2-yl)amino)-8-azabicyclo[3.2.1]octan-8-yl)methyl)benzenesulfonamide]",X1^d,,,
"Cc1cc(C#N)cc(C)c1Oc1nc(NC2CC3CCC(C2)N3Cc2ccc(C(N)=O)cc2)nc2ccsc12 (stereo not drawn) [8b2, 4-((3-((4-(4-Cyano-2,6-dimethylphenoxy)thieno[3,2-d]-pyrimidin-2-yl)amino)-8-azabicyclo[3.2.1]octan-8-yl)methyl)benzamide]",X1^d,,,
"Cc1cc(C#N)cc(C)c1Oc1nc(NC2CC3CCC(C2)N3Cc2cccc(C(N)=O)c2)nc2ccsc12 (stereo not drawn) [8b3, 3-((3-((4-(4-Cyano-2,6-dimethylphenoxy)thieno[3,2-d]-pyrimidin-2-yl)amino)-8-azabicyclo[3.2.1]octan-8-yl)methyl)benzamide]",X1^d,,,
"Cc1cc(C#N)cc(C)c1Oc1nc(NC2CC3CCC(C2)N3Cc2ccc(S(C)(=O)=O)cc2)nc2ccsc12 (stereo not drawn) [8b4, 3,5-Dimethyl-4-((2-((8-(4-(methylsulfonyl)benzyl)-8-azabicyclo[3.2.1]octan-3-yl)amino)thieno[3,2-d]pyrimidin-4-yl)oxy)benzonitrile]",X1^d,,,
"Cc1cc(C#N)cc(C)c1Oc1nc(NC2CC3CCC(C2)N3Cc2ccncc2)nc2ccsc12 (stereo not drawn) [8b5, 3,5-Dimethyl-4-((2-((8-(pyridin-4-ylmethyl)-8-azabicyclo-[3.2.1]octan-3-yl)amino)thieno[3,2-d]pyrimidin-4-yl)oxy)benzonitrile]",X1^d,,,
"Cc1cc(C#N)cc(C)c1Oc1nc(N[C@@H]2CCN(Cc3ccc(C(N)=O)cc3)C2)nc2ccsc12 [8c2, (R)-4-((3-((4-(4-Cyano-2,6-dimethylphenoxy)thieno[3,2-d]-pyrimidin-2-yl)amino)pyrrolidin-1-yl)methyl)benzamide]",,,,CC50 [2]: > 250 nM
"Cc1cc(C#N)cc(C)c1Oc1nc(N[C@@H]2CCN(Cc3cccc(C(N)=O)c3)C2)nc2ccsc12 [8c3, (R)-3-((3-((4-(4-Cyano-2,6-dimethylphenoxy)thieno[3,2-d]-pyrimidin-2-yl)amino)pyrrolidin-1-yl)methyl)benzamide]",,,,CC50 [2]: > 250 nM
"Cc1cc(C#N)cc(C)c1Oc1nc(N[C@@H]2CCN(Cc3ccc(S(C)(=O)=O)cc3)C2)nc2ccsc12 [8c4, (R)-3,5-Dimethyl-4-((2-((1-(4-(methylsulfonyl)benzyl)pyrrolidin-3-yl)amino)thieno[3,2-d]pyrimidin-4-yl)oxy)benzonitrile]",,,,CC50 [2]: > 234 nM
"Cc1cc(C#N)cc(C)c1Oc1nc(N[C@H]2CCN(Cc3ccc(S(N)(=O)=O)cc3)C2)nc2ccsc12 [8d1, (S)-4-((3-((4-(4-Cyano-2,6-dimethylphenoxy)thieno[3,2-d]-pyrimidin-2-yl)amino)pyrrolidin-1-yl)methyl)benzenesulfonamide]",,,,CC50 [2]: > 233 nM
"Cc1cc(C#N)cc(C)c1Oc1nc(N[C@H]2CCN(Cc3cccc(C(N)=O)c3)C2)nc2ccsc12 [8d3, (S)-3-((3-((4-(4-Cyano-2,6-dimethylphenoxy)thieno[3,2-d]-pyrimidin-2-yl)amino)pyrrolidin-1-yl)methyl)benzamide]",X1^d,,,
"Cc1cc(C#N)cc(C)c1Oc1nc(N[C@H]2CCN(Cc3ccncc3)C2)nc2ccsc12 [8d5, (S)-3,5-Dimethyl-4-((2-((1-(pyridin-4-ylmethyl)pyrrolidin-3-yl)amino)thieno[3,2-d]pyrimidin-4-yl)oxy)benzonitrile]",,,,CC50 [2]: > 273 nM
"Cc1cc(C#N)cc(C)c1Oc1nc(NC2CCN(Cc3ccncc3)CC2)nc2c1SCC2 [13a4, 3,5-Dimethyl-4-((2-((1-(pyridin-4-ylmethyl)piperidin-4-yl)amino)-6,7-dihydrothieno[3,2-d]pyrimidin-4-yl)oxy)benzonitrile]",,≥40104,≥2305,
"Cc1cc(C#N)cc(C)c1Oc1nc(NC2CCN(Cc3cccc(C(N)=O)c3)CC2)nc2c1SCC2 [13a6, 3-((4-((4-(4-Cyano-2,6-dimethylphenoxy)-6,7-dihydrothieno[3,2-d]pyrimidin-2-yl)amino)piperidin-1-yl)methyl)benzamide]",,≥8048,≥355,
"Cc1cc(C#N)cc(C)c1Oc1nc(NC2CCN(Cc3ccc(N)cc3)CC2)nc2c1CSC2 [13b4, 4-((2-((1-(4-Aminobenzyl)piperidin-4-yl)amino)-5,7-dihydrothieno[3,4-d]pyrimidin-4-yl)oxy)-3,5-dimethylbenzonitrile]",,>30377,>364,
"Cc1cc(C#N)cc(C)c1Oc1nc(NC2CCN(Cc3ccc(NS(C)(=O)=O)cc3)CC2)nc2c1CSC2 [13b5, N-(4-((4-((4-(4-Cyano-2,6-dimethylphenoxy)-5,7-dihydrothieno[3,4-d]pyrimidin-2-yl)amino)piperidin-1-yl)methyl)phenyl)methanesulfonamide]",,>19670,>42,
"Cc1cc(C#N)cc(C)c1Oc1nc(NC2CCN(Cc3ccc([N+](=O)[O-])cc3)CC2)nc2c1COC2 [13c5, 3,5-Dimethyl-4-((2-((1-(4-nitrobenzyl)piperidin-4-yl)amino)-5,7-dihydrofuro[3,4-d]pyrimidin-4-yl)oxy)benzonitrile]",,≥1497,≥22,
"Cc1cc(C#N)cc(C)c1Oc1nc(NC2CCN(Cc3ccc(S(N)(=O)=O)cc3)CC2)nc2c1CCC2 [13d1, 4-((4-((4-(4-Cyano-2,6-dimethylphenoxy)-6,7-dihydro-5H-cyclopenta[d]pyrimidin-2-yl)amino)piperidin-1-yl)methyl)benzenesulfonamide]",,>208333,>9091,SI L100I [5]: > 39683; SI K103N [6]: > 21186; SI Y181C [7]: > 16447; SI Y188L [8]: > 16667; SI E138K [9]: > 5543; SI F227L+V106A [10]: > 6579
"Cc1cc(C#N)cc(C)c1Oc1nc(NC2CCN(Cc3ccc(C(N)=O)cc3)CC2)nc2c1CCC2 [13d2, 4-((4-((4-(4-Cyano-2,6-dimethylphenoxy)-6,7-dihydro-5H-cyclopenta[d]pyrimidin-2-yl)amino)piperidin-1-yl)methyl)benzamide]",,>40984,>1448,
"Cc1cc(C#N)cc(C)c1Oc1nc(NC2CCN(Cc3ccncc3)CC2)nc2c1CCC2 [13d4, 3,5-Dimethyl-4-((2-((1-(pyridin-4-ylmethyl)piperidin-4-yl)amino)-6,7-dihydro-5H-cyclopenta[d]pyrimidin-4-yl)oxy)benzonitrile]",,>147059,>5020,
"Cc1cc(C#N)cc(C)c1Oc1nc(NC2CCN(Cc3ccc(S(N)(=O)=O)cc3)CC2)nc2c1CCCC2 [13e1, 4-((4-((4-(4-Cyano-2,6-dimethylphenoxy)-5,6,7,8-tetrahydroquinazolin-2-yl)amino)piperidin-1-yl)methyl)benzenesulfonamide]",,>37879,>342,
"Cc1cc(C#N)cc(C)c1Oc1nc(NC2CCN(Cc3ccc(C(N)=O)cc3)CC2)nc2c1CCCC2 [13e2, 4-((4-((4-(4-Cyano-2,6-dimethylphenoxy)-5,6,7,8-tetrahydroquinazolin-2-yl)amino)piperidin-1-yl)methyl)benzamide]",,>38709,>799,
"Cc1cc(C#N)cc(C)c1Oc1nc(NC2CCN(Cc3ccc(S(C)(=O)=O)cc3)CC2)nc2c1CCCC2 [13e3, 3,5-Dimethyl-4-((2-((1-(4-(methylsulfonyl)benzyl)piperidin-4-yl)amino)-5,6,7,8-tetrahydroquinazolin-4-yl)oxy)benzonitrile]",,>33333,>4032,
"Cc1cc(C#N)cc(C)c1Oc1nc(NC2CCN(Cc3ccc(C(N)=O)cc3)CC2)nc2c1SCCC2 [13f2, 4-((4-((4-(4-Cyano-2,6-dimethylphenoxy)-7,8-dihydro-6H-thiopyrano[3,2-d]pyrimidin-2-yl)amino)piperidin-1-yl)methyl)benzamide]",,>14767,>476,
"Cc1cc(C#N)cc(C)c1Oc1nc(NC2CCN(Cc3ccc(S(C)(=O)=O)cc3)CC2)nc2c1SCCC2 [13f3, 3,5-Dimethyl-4-((2-((1-(4-(methylsulfonyl)benzyl)piperidin-4-yl)amino)-7,8-dihydro-6H-thiopyrano[3,2-d]pyrimidin-4-yl)oxy)benzonitrile]",,≥872,≥34.6,
